Columns and labels:
[1] = system: subjects undergoing cataract extraction with lens replacement (CELR); test: Phase 2 subjects wanting study drug again for a second surgery (11-point Likert scale); assay type: in vivo, human
Excerpt: Post-operation, subjects were asked whether they would want the study drug again for a second surgery using an 11-point Likert scale of 0 (not likely at all) to 10 (extremely likely).

[2] = system: subjects undergoing cataract extraction with lens replacement (CELR); test: Phase 2 mean intraoperative analgesia by the numeric pain rating scale; assay type: in vivo, human
Description: An average of the available timepoints was also calculated.

[3] = system: subjects undergoing cataract extraction with lens replacement (CELR); test: Phase 2 subjects completing the surgery without interruption; assay type: in vivo, human; details: Visit 2 (Day 1); Full Analysis Set
Description: (§1) The number of subjects achieving analgesia response (observed) in the full analysis set was determined. Success in analgesia response was defined as NPRS <4 at the available at the available four intraoperative timepoints and a failure otherwise (e.g., any interoperative pain rescue was assumed to be a failure. Results are provided in TABLE 24. The number of subjects completing the surgery is provided in TABLE 25, and the number of subjects completing the surgery without interruption is provided in TABLE 26. For this measure, subjects completing the surgery without interruption (other than rescue medication) due to pain or anxiety were considered successes. The number of subjects requiring rescue sedative medication and those requiring analgesic medication are provided in TABLES 27 and 28, respectively. For all TABLES 24-28, p-Values between pairs of treatments were calculated and are provided.

[4] = system: subjects undergoing cataract extraction with lens replacement (CELR); test: Phase 2 subjects achieving analgesia response (NPRS <4); assay type: in vivo, human; details: Visit 2 (Day 1), observed
Description: as §1

[5] = system: subjects undergoing cataract extraction with lens replacement (CELR); test: Phase 2 subject-rated worst pain during surgery by the numeric pain rating scale; assay type: in vivo, human; details: carry forward
[6] = system: subjects undergoing cataract extraction with lens replacement (CELR); test: Phase 2 treatment-emergent ocular adverse events (study eye, non-study eye, either eye); details: for Eye disorders, % / General disorders and administration site conditions, % / Infections and infestations, % / Injury, poisoning and procedural complications, % / Investigations, %: system organ class
Description: (§2) The Phase 2 study was factorial-designed, randomized, double-blind, placebo-controlled, and included parallel-cohorts. […] Primary efficacy endpoints included appropriate sedation during the cataract surgery and management of intraoperative pain during the surgery.
The study eye (TABLE 31) non-study eye (TABLE 32), or either eye (TABLE 33) was assessed. TEAES were defined as events that started on or after the date of the study drug administration through the end of Visit 4 or early withdrawal. Subjects with one or more adverse event within a level of Medical Dictionary for Regulatory Activities (MedDRA) were counted only once in that level.

[7] = system: subjects undergoing cataract extraction with lens replacement (CELR); test: Phase 2 subjects receiving opioid concomitant medication postoperatively; assay type: in vivo, human
[8] = system: subjects undergoing cataract extraction with lens replacement (CELR); test: Phase 2 subjects requiring rescue sedative medication; assay type: in vivo, human; details: Visit 2 (Day 1)
Description: as §1

[9] = system: subjects undergoing cataract extraction with lens replacement (CELR); test: Phase 2 subjects completing the surgery; assay type: in vivo, human; details: Visit 2 (Day 1); Full Analysis Set
Description: as §1

[10] = system: subjects undergoing cataract extraction with lens replacement (CELR); test: Phase 2 subjects requiring rescue analgesic medication; assay type: in vivo, human; details: Visit 2 (Day 1); Full Analysis Set
Description: as §1

[11] = system: subjects undergoing cataract extraction with lens replacement (CELR); test: Phase 2 subjects achieving procedural sedation (RSS 2 or 3 without rescue); assay type: in vivo, human; details: Visit 2 (Day 1), Full Analysis Set
Description: A Phase 2 efficacy and safety study of the MELT-300 formulation was conducted at nine sites with over 300 enrolled subjects. MELT-300 is a sublingual, needle- and opioid-free formulation for procedural sedation during cataract surgery. […] MELT-300 utilizes fast-dissolving delivery technology (Zydis®, Catalent Inc.) to rapidly dissolve the tablet for absorption across the sublingual mucosa.
as §2
Achievement of procedural sedation was evaluated for each subject (see TABLE 19). Success for procedural sedation for this Phase 2 study was defined as achieving target sedation level (Ramsay Sedation Scale (RSS) scale level 2 or 3) at the start of surgery without the need for rescue sedation medication, and no need for intraoperative rescue sedation medication to maintain target sedation level.

[12] = 11-point Likert scale 0 (not likely at all) to 10 (extremely likely)
[13] = Average of available timepoints, adjusted for site table, carry forward
[14] = Average of available timepoints, carry forward
[15] = Average of available timepoints, observed
[16] = Corneal incision, adjusted for site table, carry forward
[17] = Corneal incision, carry forward
[18] = Insertion of the phacoemulsion probe, adjusted for site table, carry forward
[19] = Insertion of the phacoemulsion probe, carry forward
[20] = Insertion of the phacoemulsion probe, observed
[21] = Insertion of the speculum, adjusted for site table, carry forward
[22] = Insertion of the speculum, carry forward
[23] = Insertion of the speculum, observed
[24] = Insertion of the synthetic replacement lens, adjusted for site table, carry forward
[25] = Insertion of the synthetic replacement lens, carry forward
[26] = Insertion of the synthetic replacement lens, observed
[27] = adjusted for site, carry forward
[28] = carry forward, repeated measures model
[29] = observed, repeated measures model

Cc1ncc2n1-c1ccc(Cl)cc1C(c1ccccc1F)=NC2 [Midazolam 3 mg]
Want Study Drug Again, mean [1, 12]: 8.4
Want Study Drug Again, median [1, 12]: 10.0
Want Study Drug Again, Mean Difference versus ketamine ([1]; unpaired t-test): 0.80
Want Study Drug Again, Mean Difference versus placebo ([1]; unpaired t-test): 0.75
Intraoperative NPRS, LS Mean ([2]; Average of available timepoints, adjusted for site (study center covariate), carry forward): 2.12
Intraoperative NPRS, mean [2, 13]: 2.37
Intraoperative NPRS, median [2, 13]: 2.00
Intraoperative NPRS, mean [2, 14]: 2.37
Intraoperative NPRS, median [2, 14]: 2.00
Intraoperative NPRS, LS Mean ([2]; Average of available timepoints, carry forward, repeated measures model): 2.37
Intraoperative NPRS, mean [2, 15]: 2.18
Intraoperative NPRS, median [2, 15]: 2.00
Intraoperative NPRS, LS Mean ([2]; Average of available timepoints, observed, repeated measures model): 2.46
Intraoperative NPRS, mean [2, 16]: 1.8
Intraoperative NPRS, median [2, 16]: 1.0
Intraoperative NPRS, mean [2, 17]: 1.8
Intraoperative NPRS, median [2, 17]: 1.0
Intraoperative NPRS, mean ([2]; Corneal incision, observed): 1.8
Intraoperative NPRS, median ([2]; Corneal incision, observed): 1.0
Intraoperative NPRS, mean [2, 18]: 2.9
Intraoperative NPRS, median [2, 18]: 3.0
Intraoperative NPRS, mean [2, 19]: 2.9
Intraoperative NPRS, median [2, 19]: 3.0
Intraoperative NPRS, mean [2, 20]: 2.5
Intraoperative NPRS, median [2, 20]: 2.0
Intraoperative NPRS, mean [2, 21]: 1.1
Intraoperative NPRS, median [2, 21]: 0.0
Intraoperative NPRS, mean [2, 22]: 1.1
Intraoperative NPRS, median [2, 22]: 0.0
Intraoperative NPRS, mean [2, 23]: 1.1
Intraoperative NPRS, median [2, 23]: 0.0
Intraoperative NPRS, mean [2, 24]: 3.6
Intraoperative NPRS, median [2, 24]: 4.0
Intraoperative NPRS, mean [2, 25]: 3.6
Intraoperative NPRS, median [2, 25]: 4.0
Intraoperative NPRS, mean [2, 26]: 2.9
Intraoperative NPRS, median [2, 26]: 3.0
Intraoperative NPRS, LS Mean Difference versus ketamine [2, 27]: 0.22
Intraoperative NPRS, LS Mean Difference versus placebo [2, 27]: −0.08
Intraoperative NPRS, LS Mean Difference versus ketamine [2, 28]: 0.20
Intraoperative NPRS, LS Mean Difference versus placebo [2, 28]: −0.12
Intraoperative NPRS, LS Mean Difference versus ketamine [2, 29]: 0.24
Intraoperative NPRS, LS Mean Difference versus placebo [2, 29]: −0.01
Subjects completing the surgery without interruption: No, % [3]: (0) %
Subjects completing the surgery without interruption: Yes, % [3]: (100.0) %
Subjects achieving analgesia response: Yes, % ([4]; NPRS <4 at four intraoperative timepoints): 40.7%
Subjects achieving analgesia response: No, % [4]: 59.3%
Worst Pain During Surgery, Mean Difference versus ketamine [5]: 0.38
Worst Pain During Surgery, Mean Difference versus placebo [5]: 0.05
Worst Pain During Surgery (NPRS), mean ([5]; Full Analysis Set): 4.0
Worst Pain During Surgery (NPRS), median ([5]; Full Analysis Set): 4.0
Cataract operation complication, % ([6]; Either Eye): (0) %
Conjunctivitis bacterial, % ([6]; Either Eye): (0) %
Corneal abrasion, % ([6]; Either Eye): (0) %
Corneal oedema, % ([6]; Either Eye): (0) %
Endophthalmitis, % ([6]; Either Eye): (0) %
Eye pain, % ([6]; Either Eye): (3.4) %
Foreign body sensation in eyes, % ([6]; Either Eye): (0) %
Intraocular pressure increased, % ([6]; Either Eye): (2.3) %
Ocular hypertension, % ([6]; Either Eye): (1.1) %
Pain, % ([6]; Either Eye): (0) %
Paracentesis eye, % ([6]; Either Eye): (0) %
Procedural pain, % ([6]; Either Eye): (1.1) %
Subjects with Any Treatment-Emergent Ocular AEs, % ([6]; Either Eye): (9.2) %
Vision blurred, % ([6]; Either Eye): (1.1) %
Eye disorders, % ([6]; Either Eye): (5.7) %
General disorders and administration site conditions, % ([6]; Either Eye): (0) %
Infections and infestations, % ([6]; Either Eye): (0) %
Injury, poisoning and procedural complications, % ([6]; Either Eye): (1.1) %
Investigations, % ([6]; Either Eye): (2.3) %
Conjunctivitis bacterial, % ([6]; Non-Study Eye): (0) %
Eye pain, % ([6]; Non-Study Eye): (0) %
Subjects with Any Treatment-Emergent Ocular AEs, % ([6]; Non-Study Eye): (1.1) %
Vision blurred, % ([6]; Non-Study Eye): (1.1) %
Eye disorders, % ([6]; Non-Study Eye): (1.1) %
Infections and infestations, % ([6]; Non-Study Eye): (0) %
Cataract operation complication, % ([6]; Study Eye): (0) %
Corneal abrasion, % ([6]; Study Eye): (0) %
Corneal oedema, % ([6]; Study Eye): (0) %
Endophthalmitis, % ([6]; Study Eye): (0) %
Eye pain, % ([6]; Study Eye): (3.4) %
Foreign body sensation in eyes, % ([6]; Study Eye): (0) %
Intraocular pressure increased, % ([6]; Study Eye): (2.3) %
Ocular hypertension, % ([6]; Study Eye): (1.1) %
Pain, % ([6]; Study Eye): (0) %
Procedural pain, % ([6]; Study Eye): (1.1) %
Subjects with Any Treatment-Emergent Ocular AEs, % ([6]; Study Eye): (8.0) %
Eye disorders, % ([6]; Study Eye): (4.6) %
General disorders and administration site conditions, % ([6]; Study Eye): (0) %
Infections and infestations, % ([6]; Study Eye): (0) %
Injury, poisoning and procedural complications, % ([6]; Study Eye): (1.1) %
Investigations, % ([6]; Study Eye): (2.3) %
Paracentesis eye, % ([6]; printed in the Non-Study Eye table): (0) %
Received Postoperative Opioid on Day 2: No, % ([7]; Day 2): (100.0) %
Received Postoperative Opioid on Day 2: Yes, % ([7]; Day 2): (0.0) %
Received Postoperative Opioid on Day 2-8: No, % ([7]; Day 2-8): (100.0) %
Received Postoperative Opioid on Day 2-8: Yes, % ([7]; Day 2-8): (0.0) %
Subjects requiring rescue sedative medication: No, % ([8]; Full Analysis Set): (65.4) %
Subjects requiring rescue sedative medication: Yes, % ([8]; Full Analysis Set): (34.6) %
Subjects requiring rescue sedative medication: Intraoperatively, % ([8]; Intraoperatively): (8.6) %
Subjects requiring rescue sedative medication: Pre-operatively, % ([8]; Pre-operatively): (25.9) %
Subjects completing the surgery: No, % [9]: 0 (0) %
Subjects completing the surgery: Yes, % [9]: 100.0%
Subjects requiring rescue analgesic medication: No, % [10]: (56.8) %
Subjects requiring rescue analgesic medication: Yes, % [10]: (43.2) %
Subjects achieving procedural sedation: No, % [11]: 35.8%
Subjects achieving procedural sedation: Yes, % ([11]; RSS 2 or 3 without rescue sedation): 64.2%

Reference: patent US20240207285A1 (Melt Pharmaceuticals, Inc., priority 2022, published 2024)
